This note sets out measurements from patent US20240083861A1, “HSD17B13 INHIBITORS AND USES THEREOF” (FL2022-001, Inc., priority 2020, published 2024).

By IC50 is commonly meant the concentration that gives 50% inhibition.

The test concerns the target T1, Recombinant human HSD17B13 enzyme (Homo sapiens, UniProt Q7Z5P4).
T1 sequence (Q7Z5P4 20-300): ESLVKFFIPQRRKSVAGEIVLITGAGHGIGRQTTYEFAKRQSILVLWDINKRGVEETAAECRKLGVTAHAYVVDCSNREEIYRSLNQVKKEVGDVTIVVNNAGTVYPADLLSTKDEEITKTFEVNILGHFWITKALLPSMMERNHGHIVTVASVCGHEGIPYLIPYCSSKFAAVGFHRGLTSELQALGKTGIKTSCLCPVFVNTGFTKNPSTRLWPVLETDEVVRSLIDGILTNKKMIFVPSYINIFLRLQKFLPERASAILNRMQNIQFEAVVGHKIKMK
As to the kind of experiment: HSD17b13 NAD(P)H-Glo biochemical assay. To be noted: 50 uM estradiol, 1 mM NAD+, NAD(P)H-Glo luminescence; read-out: HSD17β13 IC50. The method, boiled down:
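Luminescent NAD(P)H-Glo read-out, taken after 1 hour at RT, measured cofactor reduction. Substrate and cofactor were estradiol at 50 uM and NAD+ at 1 mM final, reacted with the recombinant human enzyme for 3 hours at 37° C in 20 mM Tris pH7.4, 0.002% Tween-20, 0.02% BSA. Compound was pre-incubated with enzyme for 20 minutes at RT.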
Turning to `Cn1nc(-c2cc(C(F)(F)F)c(F)c(O)c2F)c2cnc(N3CCOCC3C(=O)O)nc21` (stereo not drawn) [Compound 18.38, 4-(3-(2,4-Difluoro-3-hydroxy-5-(trifluoromethyl)phenyl)-1-methyl-1H-pyrazolo[3,4-d]pyrimidin-6-yl)morpholine-3-carboxylic Acid], the IC50 fell in the range of 1000 to 30000 nM.

`CN(C)CCC1CN(c2ncc3c(-c4cc(C(F)(F)F)c(F)c(O)c4F)nn(C)c3n2)CCO1` (stereo not drawn) [Compound 18.39, 3-(6-(2-(2-(Dimethylamino)ethyl)morpholino)-1-methyl-1H-pyrazolo[3,4-d]pyrimidin-3-y1)-2,6-difluoro-5-(trifluoromethyl)phenol]: the half-maximal inhibitory concentration (IC50) was in the range of 100 to 1000 nM.

Regarding `Cn1nc(-c2cc(C(F)(F)F)c(F)c(O)c2F)c2cnc(N3CCOCC3CC(=O)O)nc21` (stereo not drawn) [Compound 18.40, 2-(4-(3-(2,4-Difluoro-3-hydroxy-5-(trifluoromethyl)phenyl)-1-methyl-1H-pyrazolo[3,4-d]pyrimidin-6-yl)morpholin-3-yl)acetic Acid], the half-maximal inhibitory concentration (IC50) was in the range of 100 to 1000 nM.

For `CN1CCC2(CC1)CN(c1ncc3c(-c4cc(C(F)(F)F)c(F)c(O)c4F)nn(C)c3n1)CCO2` [Compound 18.41, 2,6-Difluoro-3-(1-methyl-6-(9-methyl-1-oxa-4,9-diazaspiro[5.5]undecan-4-y1)-1H-pyrazolo[3,4-d]pyrimidin-3-y1)-5-(trifluoromethyl)phenol], the concentration for half-maximal inhibition (IC50) was 100 to 1000 nM.

Turning to `Cn1nc(-c2cc(C(F)(F)F)c(F)c(O)c2F)c2cnc(N3CCOCC3C3CCOCC3)nc21` (stereo not drawn) [Compound 18.42, 2,6-Difluoro-3-(1-methyl-6-(3-(tetrahydro-2H-pyran-4-yl)morpholino)-1H-pyrazolo[3,4-d]pyrimidin-3-y1)-5-(trifluoromethyl)phenol], the IC50 was below 100 nM.

Turning to `Cn1nc(-c2cc(C(F)(F)F)c(F)c(O)c2F)c2cnc(N3CCOC(C(=O)O)C3)nc21` (stereo not drawn) [Compound 18.43, 4-(3-(2,4-Difluoro-3-hydroxy-5-(trifluoromethyl)phenyl)-1-methyl-1H-pyrazolo[3,4-d]pyrimidin-6-yl)morpholine-2-carboxylic Acid], the half-maximal inhibitory concentration (IC50) fell in the range of 1000 to 30000 nM.

As to `Cn1nc(-c2cc(C(F)(F)F)c(F)c(O)c2F)c2cnc(N3CCC(c4ccccc4)CC3)nc21` [Compound 18.44, 2,6-Difluoro-3-(1-methyl-6-(4-phenylpiperidin-1-y1)-1H-pyrazolo[3,4-d]pyrimidin-3-y1)-5-(trifluoromethyl)phenol], the IC50 is below 100 nM.

Take `CN(C)C1CCCN(c2ncc3c(-c4cc(C(F)(F)F)c(F)c(O)c4F)nn(C)c3n2)C1` (stereo not drawn) [Compound 18.45, 3-(6-(3-(Dimethylamino)piperidin-1-y1)-1-methyl-1H-pyrazolo[3,4-d]pyrimidin-3-y1)-2,6-difluoro-5-(trifluoromethyl)phenol]: the IC50 lay in the range of 100 to 1000 nM.

On to `Cn1nc(-c2cc(C(F)(F)F)c(F)c(O)c2F)c2cnc(N3CCOCC3c3ccccc3)nc21` (stereo not drawn) [Compound 18.46, 2,6-Difluoro-3-(1-methyl-6-(3-phenylmorpholino)-1H-pyrazolo[3,4-d]pyrimidin-3-y1)-5-(trifluoromethyl)phenol], for which the IC50 is below 100 nM.

On to `CN1CCC2(CC1)CCN(c1ncc3c(-c4cc(C(F)(F)F)c(F)c(O)c4F)nn(C)c3n1)CC2` [Compound 18.47, 2,6-Difluoro-3-(1-methyl-6-(9-methyl-3,9-diazaspiro[5.5]undecan-3-y1)-1H-pyrazolo[3,4-d]pyrimidin-3-y1)-5-(trifluoromethyl)phenol], for which the IC50 is below 100 nM.

Consider `Cn1nc(-c2cc(C(F)(F)F)c(F)c(O)c2F)c2cnc(N3CCOC(c4ccccn4)C3)nc21` (stereo not drawn) [Compound 18.48, 2,6-Difluoro-3-(1-methyl-6-(2-(pyridin-2-yl)morpholino)-1H-pyrazolo[3,4-d]pyrimidin-3-y1)-5-(trifluoromethyl)phenol], for which the IC50 was below 100 nM.

Regarding `Cn1nc(-c2cc(C(F)(F)F)c(F)c(O)c2F)c2cnc(N3CCOC(C4CCOCC4)C3)nc21` (stereo not drawn) [Compound 18.49, 2,6-Difluoro-3-(1-methyl-6-(2-(tetrahydro-2H-pyran-4-yl)morpholino)-1H-pyrazolo[3,4-d]pyrimidin-3-y1)-5-(trifluoromethyl)phenol], the IC50 was below 100 nM.

Consider `Cn1nc(-c2cc(C(F)(F)F)c(F)c(O)c2F)c2cnc(N3CCOC(c4nnn[nH]4)C3)nc21` (stereo not drawn) [Compound 18.50, 3-(6-(2-(1H-Tetrazol-5-yl)morpholino)-1-methyl-1H-pyrazolo[3,4-d]pyrimidin-3-y1)-2,6-difluoro-5-(trifluoromethyl)phenol], for which the concentration for half-maximal inhibition (IC50) fell in the range of 1000 to 30000 nM.

As to `Cn1nccc1C1CN(c2ncc3c(-c4cc(C(F)(F)F)c(F)c(O)c4F)nn(C)c3n2)CCO1` (stereo not drawn) [Compound 18.51, 2,6-Difluoro-3-(1-methyl-6-(2-(1-methyl-1H-pyrazol-5-yl)morpholino)-1H-pyrazolo[3,4-d]pyrimidin-3-y1)-5-(trifluoromethyl)phenol], the concentration for half-maximal inhibition (IC50) was below 100 nM.

In the case of `Cc1nnc(C2CN(c3ncc4c(-c5cc(C(F)(F)F)c(F)c(O)c5F)nn(C)c4n3)CCO2)o1` (stereo not drawn) [Compound 18.52, 2,6-Difluoro-3-(1-methyl-6-(2-(5-methyl-1,3,4-oxadiazol-2-y1)morpholino)-1H-pyrazolo[3,4-d]pyrimidin-3-y1)-5-(trifluoromethyl)phenol], the half-inhibitory concentration (IC50) is 100 to 1000 nM.

For the molecule `CN1CCN(c2ncc3c(-c4cc(C(F)(F)F)c(F)c(O)c4F)nn(C)c3n2)C(c2ccccc2)C1` (stereo not drawn) [Compound 18.53, 2,6-Difluoro-3-(1-methyl-6-(4-methyl-2-phenylpiperazin-1-yl)-1H-pyrazolo[3,4-d]pyrimidin-3-yl)-5-(trifluoromethyl)phenol], the concentration for half-maximal inhibition (IC50) was below 100 nM.

In the case of `Cn1nc(-c2cc(C(F)(F)F)c(F)c(O)c2F)c2cnc(N3CCS(=O)(=O)C(C)(C)C3)nc21` [Compound 18.54, 4-(3-(2,4-Difluoro-3-hydroxy-5-(trifluoromethyl)phenyl)-1-methyl-1H-pyrazolo[3,4-d]pyrimidin-6-yl)-2,2-dimethylthiomorpholine 1,1-dioxide], the IC50 is below 100 nM.

As to `Cn1nc(-c2cc(C(F)(F)F)c(F)c(O)c2F)c2cnc(N3CCOC(c4cccnc4)C3)nc21` (stereo not drawn) [Compound 18.55, 2,6-Difluoro-3-(1-methyl-6-(2-(pyridin-3-y1)morpholino)-1H-pyrazolo[3,4-d]pyrimidin-3-y1)-5-(trifluoromethyl)phenol], the IC50 was below 100 nM.

Regarding `Cn1nc(-c2cc(C(F)(F)F)c(F)c(O)c2F)c2cnc(N3CCOC(c4ccncc4)C3)nc21` (stereo not drawn) [Compound 18.56, 2,6-Difluoro-3-(1-methyl-6-(2-(pyridin-4-y1)morpholino)-1H-pyrazolo[3,4-d]pyrimidin-3-y1)-5-(trifluoromethyl)phenol], the concentration for half-maximal inhibition (IC50) is below 100 nM.

Regarding `Cn1nc(-c2cc(C(F)(F)F)c(F)c(O)c2F)c2cnc(N3CCOC(CC(=O)O)C3)nc21` (stereo not drawn) [Compound 18.57, 2-(4-(3-(2,4-Difluoro-3-hydroxy-5-(trifluoromethyl)phenyl)-1-methyl-1H-pyrazolo[3,4-d]pyrimidin-6-yl)morpholin-2-yl)acetic Acid], the half-maximal inhibitory concentration (IC50) lay within 1000 to 30000 nM.

For `Cn1cc(C2CN(c3ncc4c(-c5cc(C(F)(F)F)c(F)c(O)c5F)nn(C)c4n3)CCO2)cn1` (stereo not drawn) [Compound 18.58, 2,6-Difluoro-3-(1-methyl-6-(2-(1-methyl-1H-pyrazol-4-yl)morpholino)-1H-pyrazolo[3,4-d]pyrimidin-3-y1)-5-(trifluoromethyl)phenol], the 50% inhibitory concentration (IC50) is below 100 nM.
